Patent publication EP0873397B1, “NOVEL MICROORGANISM AND METHOD FOR ENVIRONMENTAL PURIFICATION USING THE SAME” (priority 1996, dated 1998)

Assay: Analysis of byproducts in soil after trichloroethylene decomposition by UV-sterilized bacterial mass
Method: After plating the suspension of the bacterial mass onto a petri dish to a thickness of about 1 mm, and then sterilized under irradiation of a 15 W ultra violet lamp with a wavelength of 260 nm for not less than 60 seconds at a distance of 40 cm from the light source.
After that, trichloroethylene in the soil was allowed to be decomposed and the byproducts which is believed to be formed in association with trichloroethylene decomposition were analyzed in a similar manner to Example 13. Furthermore, in an experiment in which the suspension of sterilized bacterial mass at an amount of 1/100 of that of the NYG medium was inoculated or the suspension was plated as it was onto the NYG agar medium and cultured at 30°C, neither increase in turbidity of the culture liquid nor colony formation were observed, and thereby it was confirmed that there was complete sterilization.

SMILES: OCC(Cl)(Cl)Cl [Trichloroethanol]
- Result (byproduct in the soil): Not detected
